Assays:
[1] = tested on: NCI-H69; test: Survival of human H69 cells at 0.1 uM under deem light after 96 hrs by MTT assay relative to control; assay type: functional; details: NCI-H69, 96 h, read-out: Survival
[2] = Survival of human MDA-MB cells at 100 uM under deem light after 96 hrs by MTT assay relative to control; assay type: functional; details: read-out: Survival
[3] = Photohemolysis in human RBC assessed as concentration required to 50% hemolysis under light exposure for 5 mins; assay type: ADME, cell-based, Erythrocyte; details: human red blood cells, read-out: Activity
[4] = Survival of human H209 cells at 100 uM under deem light after 96 hrs by MTT assay relative to control; assay type: functional; details: NCI-H209, 96 h, read-out: Survival
[5] = tested on: NCI-H69; test: Survival of human H69 cells at 1 uM under deem light after 96 hrs by MTT assay relative to control; assay type: functional; details: NCI-H69, 96 h, read-out: Survival
[6] = Survival of human H209 cells at 1 uM under deem light after 96 hrs by MTT assay relative to control; assay type: functional; details: NCI-H209, 96 h, read-out: Survival
[7] = tested on: Raji; test: Survival of human Raji cells at 0.1 uM under deem light after 96 hrs by MTT assay relative to control; assay type: functional; details: read-out: Survival
[8] = Photohemolysis in human RBC at 520 nM under exposure to light for 10 mins; assay type: ADME, cell-based, Erythrocyte; details: human red blood cells, read-out: Activity
[9] = Survival of human 2780.9S cells at 0.1 uM under deem light after 96 hrs by MTT assay relative to control; assay type: functional; details: read-out: Survival
[10] = tested on: SiHa; test: Cytotoxicity against human SIHA cells under deem light after 96 hrs by MTT assay; assay type: functional, cell-based
[11] = tested on: SiHa; test: Survival of human SIHA cells at 10 uM under deem light after 96 hrs by MTT assay relative to control; assay type: functional; details: read-out: Survival
[12] = Survival of human H209 cells at 0.1 uM under deem light after 96 hrs by MTT assay relative to control; assay type: functional; details: NCI-H209, 96 h, read-out: Survival
[13] = Survival of human 2780.9S cells at 100 uM under deem light after 96 hrs by MTT assay relative to control; assay type: functional; details: read-out: Survival
[14] = Cytotoxicity against human MDA-MB cells under deem light after 96 hrs by MTT assay; assay type: functional, cell-based
[15] = Survival of human 2780.9S cells at 1 uM under deem light after 96 hrs by MTT assay relative to control; assay type: functional; details: read-out: Survival
[16] = tested on: K562; test: Survival of human K562 cells at 1 uM under deem light after 96 hrs by MTT assay relative to control; assay type: functional; details: K562, 96 h, read-out: Survival
[17] = tested on: SiHa; test: Survival of human SIHA cells at 1 uM under deem light after 96 hrs by MTT assay relative to control; assay type: functional; details: read-out: Survival
[18] = tested on: NCI-H69; test: Cytotoxicity against human H69 cells under deem light after 96 hrs by MTT assay; assay type: functional, cell-based; details: NCI-H69, 96 h
[19] = tested on: K562; test: Survival of human K562 cells at 10 uM under deem light after 96 hrs by MTT assay relative to control; assay type: functional; details: K562, 96 h, read-out: Survival
[20] = tested on: HeLa; test: Cytotoxicity against human HeLa cells under deem light after 96 hrs by MTT assay; assay type: functional, cell-based
[21] = tested on: NCI-H69; test: Survival of human H69 cells at 10 uM under deem light after 96 hrs by MTT assay relative to control; assay type: functional; details: NCI-H69, 96 h, read-out: Survival
[22] = tested on: SiHa; test: Survival of human SIHA cells at 50 uM under deem light after 96 hrs by MTT assay relative to control; assay type: functional; details: read-out: Survival
[23] = Survival of human MDA-MB cells at 50 uM under deem light after 96 hrs by MTT assay relative to control; assay type: functional; details: read-out: Survival
[24] = Survival of human 2780.9S cells at 10 uM under deem light after 96 hrs by MTT assay relative to control; assay type: functional; details: read-out: Survival
[25] = Survival of human H209 cells at 50 uM under deem light after 96 hrs by MTT assay relative to control; assay type: functional; details: NCI-H209, 96 h, read-out: Survival
[26] = Photohemolysis in human RBC in absence of light; assay type: ADME, cell-based; details: erythrocyte
[27] = tested on: K562; test: Survival of human K562 cells at 50 uM under deem light after 96 hrs by MTT assay relative to control; assay type: functional; details: K562, 96 h, read-out: Survival
[28] = tested on: K562; test: Survival of human K562 cells at 100 uM under deem light after 96 hrs by MTT assay relative to control; assay type: functional; details: K562, 96 h, read-out: Survival
[29] = tested on: Raji; test: Survival of human Raji cells at 10 uM under deem light after 96 hrs by MTT assay relative to control; assay type: functional; details: read-out: Survival
[30] = tested on: HeLa; test: Survival of human HeLa cells at 1 uM under deem light after 96 hrs by MTT assay relative to control; assay type: functional; details: read-out: Survival
[31] = Photohemolysis in human RBC assessed as concentration required to 50% hemolysis under light exposure for 10 mins; assay type: ADME, cell-based, Erythrocyte; details: human red blood cells, read-out: Activity
[32] = Survival of human MDA-MB cells at 0.1 uM under deem light after 96 hrs by MTT assay relative to control; assay type: functional; details: read-out: Survival
[33] = Survival of human MDA-MB cells at 10 uM under deem light after 96 hrs by MTT assay relative to control; assay type: functional; details: read-out: Survival
[34] = tested on: Raji; test: Cytotoxicity against human Raji cells under deem light after 96 hrs by MTT assay; assay type: functional, cell-based
[35] = tested on: K562; test: Cytotoxicity against human K562 cells under deem light after 96 hrs by MTT assay; assay type: functional, cell-based; details: K562, 96 h
[36] = tested on: HeLa; test: Survival of human HeLa cells at 100 uM under deem light after 96 hrs by MTT assay relative to control; assay type: functional; details: read-out: Survival
[37] = tested on: Raji; test: Survival of human Raji cells at 1 uM under deem light after 96 hrs by MTT assay relative to control; assay type: functional; details: read-out: Survival
[38] = tested on: NCI-H69; test: Survival of human H69 cells at 50 uM under deem light after 96 hrs by MTT assay relative to control; assay type: functional; details: NCI-H69, 96 h, read-out: Survival
[39] = tested on: SiHa; test: Survival of human SIHA cells at 100 uM under deem light after 96 hrs by MTT assay relative to control; assay type: functional; details: read-out: Survival
[40] = Survival of human 2780.9S cells at 50 uM under deem light after 96 hrs by MTT assay relative to control; assay type: functional; details: read-out: Survival
[41] = Cytotoxicity against human 2780.9S cells under deem light after 96 hrs by MTT assay; assay type: functional, cell-based
[42] = tested on: NCI-H69; test: Survival of human H69 cells at 100 uM under deem light after 96 hrs by MTT assay relative to control; assay type: functional; details: NCI-H69, 96 h, read-out: Survival
[43] = tested on: Daudi; test: Cytotoxicity against human Daudi cells under deem light after 96 hrs by MTT assay; assay type: functional, cell-based
[44] = tested on: K562; test: Survival of human K562 cells at 0.1 uM under deem light after 96 hrs by MTT assay relative to control; assay type: functional; details: K562, 96 h, read-out: Survival
[45] = Survival of human MDA-MB cells at 1 uM under deem light after 96 hrs by MTT assay relative to control; assay type: functional; details: read-out: Survival
[46] = Survival of human H209 cells at 10 uM under deem light after 96 hrs by MTT assay relative to control; assay type: functional; details: NCI-H209, 96 h, read-out: Survival
[47] = tested on: HeLa; test: Survival of human HeLa cells at 50 uM under deem light after 96 hrs by MTT assay relative to control; assay type: functional; details: read-out: Survival
[48] = tested on: Raji; test: Survival of human Raji cells at 50 uM under deem light after 96 hrs by MTT assay relative to control; assay type: functional; details: read-out: Survival
[49] = tested on: HeLa; test: Survival of human HeLa cells at 0.1 uM under deem light after 96 hrs by MTT assay relative to control; assay type: functional; details: read-out: Survival
[50] = tested on: Raji; test: Survival of human Raji cells at 100 uM under deem light after 96 hrs by MTT assay relative to control; assay type: functional; details: read-out: Survival
[51] = tested on: HeLa; test: Survival of human HeLa cells at 10 uM under deem light after 96 hrs by MTT assay relative to control; assay type: functional; details: read-out: Survival

C=Cc1c(C)c2cc3nc(c4c5[nH]c(cc6nc(cc1[nH]2)C(C)=C6CC)c(C)c5C(=O)[C@@H]4C(=O)OC)[C@@H](CCC(=O)OC)[C@@H]3C [METHYL PHEOPHORBIDE A]
viability at 0.1 µM [1]: 70.7% | viability at 100 µM [2]: 68.9% | HC50 at 5 min [3]: > 525 nM | viability at 100 µM [4]: 82.3% | viability at 1 µM [5]: 84.3% | viability at 1 µM [6]: 90.2% | viability at 0.1 µM [7]: 92.9% | hemolysis at 10 min, 0.52 µM [8]: 18% | viability at 0.1 µM [9]: 100% | IC50 [10]: > 100 µM | viability at 10 µM [11]: 90.8% | viability at 0.1 µM [12]: 83.6% | viability at 100 µM [13]: 83.2% | IC50 [14]: > 100 µM | viability at 1 µM [15]: 94.9% | viability at 1 µM [16]: 93.3% | viability at 1 µM [17]: 98% | IC50 [18]: > 100 µM | viability at 10 µM [19]: 97.3% | IC50 [20]: 25 µM | viability at 10 µM [21]: 79% | viability at 50 µM [22]: 81% | viability at 50 µM [23]: 101% | viability at 10 µM [24]: 93.4% | viability at 50 µM [25]: 85.2% | Activity [26]: Non-toxic | viability at 50 µM [27]: 97.3% | viability at 100 µM [28]: 106% | viability at 10 µM [29]: 107% | viability at 1 µM [30]: 77.4% | HC50 at 10 min [31]: > 525 nM | viability at 0.1 µM [32]: 128% | viability at 10 µM [33]: 103% | IC50 [34]: > 100 µM | IC50 [35]: > 100 µM | viability at 100 µM [36]: 36.7% | viability at 1 µM [37]: 102% | viability at 50 µM [38]: 76.7% | viability at 100 µM [39]: 68% | viability at 50 µM [40]: 90.1% | IC50 [41]: > 100 µM | viability at 100 µM [42]: 63.6% | IC50 [43]: 25 µM | viability at 0.1 µM [44]: 86% | viability at 1 µM [45]: 115% | viability at 10 µM [46]: 91.7% | viability at 50 µM [47]: 48.7% | viability at 50 µM [48]: 106% | viability at 0.1 µM [49]: 89.1% | viability at 100 µM [50]: 94.3% | viability at 10 µM [51]: 72.1%

From ChEMBL document CHEMBL1141575, “Preparation and in vitro biological evaluation of tetrapyrrole ethanolamide derivatives as potential anticancer agents” (Bioorg Med Chem Lett, 2008)
